Test results: US11866720B2, “Transgenic or non-transgenic plants with mutated protoporphyrinogen oxidase having increased tolerance to herbicides” (priority 2013, dated 2024)
Values joined by “and” are separate entries in the source; they are usually repeats but may differ in a detail not shown here. Equal values may be shown once.

Legend:
[1] = tested on: transgenic Arabidopsis thaliana plants expressing wildtype or mutated PPO; test: Greenhouse tolerance test of transgenic T1 Arabidopsis plants (phytotox / injury rating 0-100); type: in vivo; conditions: for Plant growth injury, scale 0-100, 100 is 100% damage: +1% MSO
[2] = tested on: transgenic soybean expressing mutated PPO; test: Soybean T0 cuttings, greenhouse spray test (injury score 0-9, 1 week after treatment); type: in vivo, Glycine max; conditions: for Injury score from 0-9: soybean T0 cuttings, 1 week after treatment
Source text: For testing of T0 plants, cuttings can be used. In the case of soybean plants, an optimal shoot for cutting is about 7.5 to 10 cm tall, with at least two nodes present. Each cutting is taken from the original transformant (mother plant) and dipped into rooting hormone powder (indole-3-butyric acid, IBA). The cutting is then placed in oasis wedges inside a bio-dome. Wild type cuttings are also taken simultaneously to serve as controls. The cuttings are kept in the bio-dome for 5-7 days and then transplanted to pots and then acclimated in the growth chamber for two more days. Subsequently, the cuttings are transferred to the greenhouse, acclimated for approximately 4 days, and then subjected to spray tests as indicated. Depending on the species, the plants are kept at 10-25° C. or 20-35° C. The test period extends over 3 weeks. During this time, the plants are tended and their response to the individual treatments is evaluated. Herbicide injury evaluations are taken at 2 and 3 weeks after treatment. Plant injury is rated on a scale of 0% to 100%, 0% being no injury and 100% being complete death.
Soybean cv Jake was transformed as previously described by Siminszky et al., Phytochem Rev. 5:445-458 (2006). After regeneration, transformants were transplanted to soil in small pots, placed in growth chambers (16 hr day/8 hr night; 25° C. day/23° C. night; 65% relative humidity; 130-150 microE m-2 s-1) and subsequently tested for the presence of the T-DNA via Taqman analysis. After a few weeks, healthy, transgenic positive, single copy events were transplanted to larger pots and allowed to grow in the growth chamber. An optimal shoot for cutting was about 3-4 inches tall, with at least two nodes present. Each cutting was taken from the original transformant (mother plant) and dipped into rooting hormone powder (indole-3-butyric acid, IBA). The cutting was then placed in oasis wedges inside a bio-dome. The mother plant was taken to maturity in the greenhouse and harvested for seed. Wild type cuttings were also taken simultaneously to serve as negative controls. The cuttings were kept in the bio-dome for 5-7 days and then transplanted to 3 inch pots and then acclimated in the growth chamber for two more days. […] Herbicide injury evaluations were taken at 2, 7, 14 and 21 days after treatment. Results are shown in Tables 11a-11i, and FIGS. 5, 6, and 7.
The following gives a definition of the injury scores measured above: […]

[3] = tested on: transgenic soybean expressing mutated PPO; test: Soybean segregating T1 individuals, greenhouse spray test (injury 0-9); type: in vivo, Glycine max; conditions: benzoxazin 100 g ai/ha, 1 week after treatment
[4] = tested on: transgenic Arabidopsis thaliana plants expressing wildtype or mutated PPO; test: Germination / growth inhibition assay of transgenic Arabidopsis T2 seeds in 48-well plates; conditions: growth inhibition seven to ten days after seeding

C#CCN1C(=O)C(F)(F)Oc2cc(F)c(-n3c(=O)n(C)c(=S)n(C)c3=O)cc21
Injury Rating 0-100% (0 = no injury, 100 = total control) ([1]; Line 2, F420V, SEQ_ID 2 & 4, 19 DAT, 150 g/Ha + 1% MSO): 90% and 85% and 45%
Plant growth injury, scale 0-100, 100 is 100% damage ([1]; non-transgenic Arabidopsis, POST, 7 DAT, 75 g ai/ha): 98%
Plant growth injury, scale 0-100, 100 is 100% damage ([1]; non-transgenic Arabidopsis, POST, 7 DAT, 150 g ai/ha): 98%
Plant growth injury, scale 0-100, 100 is 100% damage ([1]; non-transgenic Arabidopsis, POST, 7 DAT, 300 g ai/ha): 98%
Plant growth injury, scale 0-100, 100 is 100% damage ([1]; Ø F420V 1, POST, 7 DAT, 75 g ai/ha): 17%
Plant growth injury, scale 0-100, 100 is 100% damage ([1]; Ø F420V 1, POST, 7 DAT, 150 g ai/ha): 28%
Plant growth injury, scale 0-100, 100 is 100% damage ([1]; Ø F420V 1, POST, 7 DAT, 300 g ai/ha): 36%
Plant growth injury, scale 0-100, 100 is 100% damage ([1]; Ø F420V 1 to 3, 75 g ai/ha): 11%
Plant growth injury, scale 0-100, 100 is 100% damage ([1]; Ø F420V 1 to 3, 150 g ai/ha): 17%
Plant growth injury, scale 0-100, 100 is 100% damage ([1]; Ø F420V 1 to 3, 300 g ai/ha): 26%
Plant growth injury, scale 0-100, 100 is 100% damage ([1]; Ø F420V 2, POST, 7 DAT, 75 g ai/ha): 9%
Plant growth injury, scale 0-100, 100 is 100% damage ([1]; Ø F420V 2, POST, 7 DAT, 150 g ai/ha): 11%
Plant growth injury, scale 0-100, 100 is 100% damage ([1]; Ø F420V 2, POST, 7 DAT, 300 g ai/ha): 22%
Plant growth injury, scale 0-100, 100 is 100% damage ([1]; Ø F420V 3, POST, 7 DAT, 75 g ai/ha): 8%
Plant growth injury, scale 0-100, 100 is 100% damage ([1]; Ø F420V 3, POST, 7 DAT, 150 g ai/ha): 12%
Plant growth injury, scale 0-100, 100 is 100% damage ([1]; Ø F420V 3, POST, 7 DAT, 300 g ai/ha): 22%
Plant growth injury, scale 0-100, 100 is 100% damage ([1]; Ø R128A, F420V 1, POST, 7 DAT, 75 g ai/ha): 18%
Plant growth injury, scale 0-100, 100 is 100% damage ([1]; Ø R128A, F420V 1, POST, 7 DAT, 150 g ai/ha): 23%
Plant growth injury, scale 0-100, 100 is 100% damage ([1]; Ø R128A, F420V 1, POST, 7 DAT, 300 g ai/ha): 26%
Plant growth injury, scale 0-100, 100 is 100% damage ([1]; Ø R128A, F420V 1 to 3, 75 g ai/ha): 18%
Plant growth injury, scale 0-100, 100 is 100% damage ([1]; Ø R128A, F420V 1 to 3, 150 g ai/ha): 24%
Plant growth injury, scale 0-100, 100 is 100% damage ([1]; Ø R128A, F420V 1 to 3, 300 g ai/ha): 32%
Plant growth injury, scale 0-100, 100 is 100% damage ([1]; Ø R128A, F420V 2, POST, 7 DAT, 75 g ai/ha): 24%
Plant growth injury, scale 0-100, 100 is 100% damage ([1]; Ø R128A, F420V 2, POST, 7 DAT, 150 g ai/ha): 20%
Plant growth injury, scale 0-100, 100 is 100% damage ([1]; Ø R128A, F420V 2, POST, 7 DAT, 300 g ai/ha): 33%
Plant growth injury, scale 0-100, 100 is 100% damage ([1]; Ø R128A, F420V 3, POST, 7 DAT, 75 g ai/ha): 11%
Plant growth injury, scale 0-100, 100 is 100% damage ([1]; Ø R128A, F420V 3, POST, 7 DAT, 150 g ai/ha): 30%
Plant growth injury, scale 0-100, 100 is 100% damage ([1]; Ø R128A, F420V 3, POST, 7 DAT, 300 g ai/ha): 36%
Plant growth injury, scale 0-100, 100 is 100% damage ([1]; Ø non-transgenic Arabidopsis, POST, 7 DAT, 75 g ai/ha): 98%
Plant growth injury, scale 0-100, 100 is 100% damage ([1]; Ø non-transgenic Arabidopsis, POST, 7 DAT, 150 g ai/ha): 98%
Plant growth injury, scale 0-100, 100 is 100% damage ([1]; Ø non-transgenic Arabidopsis, POST, 7 DAT, 300 g ai/ha): 98%
injury score 1 WAT ([2]; Soy T0 AmtuPPX2L_R128L_F420V event 1, greenhouse, 25 g ai/ha): 3
injury score 1 WAT ([2]; Soy T0 AmtuPPX2L_R128L_F420V event 1, greenhouse, 50 g ai/ha): 4
injury score 1 WAT ([2]; Soy T0 AmtuPPX2L_R128L_F420V event 1, greenhouse, 75 g ai/ha): 5
injury score 1 WAT ([2]; Soy T0 AmtuPPX2L_R128L_F420V event 2, greenhouse, 25 g ai/ha): 0
injury score 1 WAT ([2]; Soy T0 AmtuPPX2L_R128L_F420V event 2, greenhouse, 50 g ai/ha): 1
injury score 1 WAT ([2]; Soy T0 AmtuPPX2L_R128L_F420V event 2, greenhouse, 75 g ai/ha): 3
Injury score from 0-9 ([2]; AmtuPPX2L (10 events), benzoxazin 12.5 + 1% MSO): 3
Injury score from 0-9 ([2]; AmtuPPX2L (10 events), benzoxazin 25 + 1% MSO): 5
Injury score from 0-9 ([2]; AmtuPPX2L_F420L (7 events), benzoxazin 12.5 + 1% MSO): 2
Injury score from 0-9 ([2]; AmtuPPX2L_F420L (7 events), benzoxazin 25 + 1% MSO): 1
Injury score from 0-9 ([2]; AmtuPPX2L_F420M (8 events), benzoxazin 25 + 1% MSO): 1
Injury score from 0-9 ([2]; AmtuPPX2L_F420M (8 events), benzoxazin 50 + 1% MSO): 2
Injury score from 0-9 ([2]; AmtuPPX2L_R128A_F420I (9 events), benzoxazin 25 + 1% MSO): 2
Injury score from 0-9 ([2]; AmtuPPX2L_R128A_F420I (9 events), benzoxazin 50 + 1% MSO): 2
Injury score from 0-9 ([2]; AmtuPPX2L_R128A_F420I (9 events), benzoxazin 75 + 1% MSO): 3
Injury score from 0-9 ([2]; AmtuPPX2L_R128A_F420L (6 events), benzoxazin 25 + 1% MSO): 0
Injury score from 0-9 ([2]; AmtuPPX2L_R128A_F420M (7 events), benzoxazin 25 + 1% MSO): 3
Injury score from 0-9 ([2]; AmtuPPX2L_R128A_F420M (7 events), benzoxazin 50 + 1% MSO): 3
Injury score from 0-9 ([2]; AmtuPPX2L_R128A_F420M (7 events), benzoxazin 75 + 1% MSO): 4
Injury score from 0-9 ([2]; AmtuPPX2L_R128A_F420V (14 events), benzoxazin 25 + 1% MSO): 2
Injury score from 0-9 ([2]; AmtuPPX2L_R128A_F420V (14 events), benzoxazin 50 + 1% MSO): 2
Injury score from 0-9 ([2]; AmtuPPX2L_R128A_F420V (14 events), benzoxazin 75 + 1% MSO): 3
Injury score from 0-9 ([2]; AmtuPPX2L_dG210 (13 events), benzoxazin 25 + 1% MSO): 1
Injury score from 0-9 ([2]; AmtuPPX2L_dG210 (13 events), benzoxazin 50 + 1% MSO): 3
Injury score from 0-9 ([2]; AmtuPPX2L_dG210_R128L (12 events), benzoxazin 25 + 1% MSO): 2
Injury score from 0-9 ([2]; AmtuPPX2L_dG210_R128L (12 events), benzoxazin 50 + 1% MSO): 3
Injury score from 0-9 ([2]; NitabPPX2 (13 events), benzoxazin 12.5 + 1% MSO): 6
Injury score from 0-9 ([2]; NitabPPX2 (13 events), benzoxazin 25 + 1% MSO): 6
Injury score from 0-9 ([2]; NitabPPX2_R98A_F392V (9 events), benzoxazin 25 + 1% MSO): 0
Injury score from 0-9 ([2]; NitabPPX2_R98A_F392V (9 events), benzoxazin 50 + 1% MSO): 0
Injury score from 0-9 ([2]; wild type Jake variety, benzoxazin 12.5 + 1% MSO): 7
Injury score from 0-9 ([2]; wild type Jake variety, benzoxazin 25 + 1% MSO): 8
Injury score from 0-9 ([2]; wild type Jake variety, benzoxazin 50 + 1% MSO): 9
Injury score from 0-9 ([2]; wild type Jake variety, benzoxazin 75 + 1% MSO): 9
injury (0-9 point scale) ([3]; SDS10791 AmtuPPX2L R128A_F420I): 3 (2×) and 2 and 4 (3×) and 9 and 5
injury (0-9 point scale) ([3]; SDS-10642 AmtuPPX2L R128A_F420L): 6 and 5 (5×) and 9 and 4
injury (0-9 point scale) ([3]; SDS-10648 AmtuPPX2L R128A_F420I): 4 (3×) and 9 and 5 (4×)
injury (0-9 point scale) ([3]; SDS-10652 AmtuPPX2L L397D_F420V): 9 (2×) and 4 (6×)
injury (0-9 point scale) ([3]; SDS-10787 AmtuPPX2L R128A_F420L): 4 and 5 (3×) and 9 (2×) and 6 (2×)
injury (0-9 point scale) ([3]; SDS-10985 AmtuPPX2L R128A_F420M): 9 (5×) and 6 (3×)
injury (0-9 point scale) ([3]; SDS-10990 AmtuPPX2L R128A_F420M): 9 (3×) and 7 (2×) and 6 (3×)
injury (0-9 point scale) ([3]; SDS-11034 AmtuPPX2L R128A_F420V): 4 (3×) and 3 (3×) and 2 (2×)
injury (0-9 point scale) ([3]; wild type): 9 (7×) and 8
Relative tolerance rate as compared to a non-transgenic Arabidopsis plant (non-transgenic = 1.0) ([4]; transgenic Arabidopsis AMATU_PPO2_F420I): 367
Relative tolerance rate as compared to a non-transgenic Arabidopsis plant (non-transgenic = 1.0) ([4]; transgenic Arabidopsis AMATU_PPO2_F420L): 253
Relative tolerance rate as compared to a non-transgenic Arabidopsis plant (non-transgenic = 1.0) ([4]; transgenic Arabidopsis AMATU_PPO2_F420M): 102
Relative tolerance rate as compared to a non-transgenic Arabidopsis plant (non-transgenic = 1.0) ([4]; transgenic Arabidopsis AMATU_PPO2_R128A_F420I): 333
Relative tolerance rate as compared to a non-transgenic Arabidopsis plant (non-transgenic = 1.0) ([4]; transgenic Arabidopsis AMATU_PPO2_R128A_F420L): 333
Relative tolerance rate as compared to a non-transgenic Arabidopsis plant (non-transgenic = 1.0) ([4]; transgenic Arabidopsis AMATU_PPO2_R128A_F420M): 204
Relative tolerance rate as compared to a non-transgenic Arabidopsis plant (non-transgenic = 1.0) ([4]; transgenic Arabidopsis AMATU_PPO2_R128L): 23
Relative tolerance rate as compared to a non-transgenic Arabidopsis plant (non-transgenic = 1.0) ([4]; transgenic Arabidopsis AMATU_PPO2_dG210): 33
Relative tolerance rate as compared to a non-transgenic Arabidopsis plant (non-transgenic = 1.0) ([4]; transgenic Arabidopsis AMATU_PPO2_dG210_R128L): 153
Relative tolerance rate as compared to a non-transgenic Arabidopsis plant (non-transgenic = 1.0) ([4]; transgenic Arabidopsis AMATU_PPO2_wt): 13
